Counter-ions that a name gives are not always drawn.
Experiments:
[1] = test system: Yellowjackets (mainly Vespula pensylvanica (ca. 90%), plus V. vulgaris, V. germanica, and Dolichovespula maculata); assay: Field trapping, Rescue W•H•Y traps baited with attractant AA/2MB: captures of yellowjackets; format: in vivo; details: for Mean/trap/visit ± SE Yellowjackets: attractant AA/2MB alone (row AA/2MB) or plus chemical, N 9; for reduction of trap catches of yellowjackets: Experiment 9
Description: (§1) Eleven field trapping experiments were carried out from late August to mid-October 2009 in residential and woody areas around Spokane, Wash., USA, mostly using the trap known by the designation Rescue® W•H•Y (except on one occasion that Rescue® Reusable Yellowjacket Traps were used for a natural food attractant; see below for details). The commercial W•H•Y trap has a top chamber and a bottom chamber and is described in U.S. Patent Application Publication No. 2009/0151228. The top chamber is baited with two attractants—one of which is a solid contained in a vial (2-methyl-1-butanol), and the other is a liquid mixed with water (acetic acid). The bottom chamber is baited with a liquid attractant (heptyl butyrate) poured onto a cotton pad. Separation of the two types of attractants (otherwise antagonistic to each other when released from the same chamber) in two chambers creates two focal attraction sources from one trap for different species of wasps, hornets, and yellowjackets. […] In a special occasion, the commercial Rescue® Reusable Yellowjacket Traps were each baited with 10 g of chopped bacon (loaded into a cartridge) as a natural protein food attractant. Traps were hung 1.5-2.0 m above the ground on either fences or tree branches ca. 5 m apart between each trap and at least 15 m between sets. For each trapping experiment, three sets of traps (i.e., three physical replicates of each treatment) were deployed with their initial trap positions within each set being randomized. To minimize positional effects and obtain more replications, wasp collections and trap re-randomization were carried out when 5-10 wasps were caught in the best traps. Each replicate lasted several days depending on wasp flight activity. Captured wasps were removed from the traps and kept in the zip-bags before returning to the laboratory for recording of the species, gender status, and catch. Repellent candidates (individuals or mixtures) were released from polyethylene bags (3×5 cm; with a fabric felt) with various thicknesses from 2-12 mil (see release rates listed in tables); they were employed inside the same trap chamber as the attractant.
(§2) Experiment 1 tested five individual essential oils (pennyroyal, lemongrass, peppermint, clove, and citronella) and two known mosquito repellents (i.e., major components of catnip oil), E/Z-nepetalactone and Z/E-nepetalactone plus a blank control against a mixture of attractant [acetic acid (AA) and 2-methyl-1-butanol (2 MB)] using the W•H•Y traps (both attractant and repellent candidates were released from the top chamber) from for eight consecutive days from August to early September. Experiment 2 tested nine individual essential oils (ylang ylang, vetiver, myrrh, patchouli, geranium, eucalyptus, camphor, spearmint, and wintergreen) plus a blank control against a mixture of attractant (AA+2 MB) using the W•H•Y traps (both attractant and repellent candidates were released from the top chamber) for eight consecutive days from late August to early September. Experiment 3 tested seven individual essential oils (Roman chamomile, sage, fennel seed, rosemary, thyme, anise, and lavender) plus a blank control against a mixture of attractant (AA+2 MB) using the W•H•Y traps (both attractant and repellent candidates were released from the top chamber) for eight consecutive days from late August to early September. Experiment 4 tested two essential oil mixtures (3EO-mix: clove, geranium, and lemongrass in ca. 1:1:1 ratio; and 4EO-mix: clove, geranium, lemongrass, and rosemary in ca. 1:1:1:1 ratio) plus a blank control against a mixture of attractant (AA+2 MB) using the W•H•Y traps (both attractant and repellent candidates were released from the top chamber) for 13 consecutive days in September; the essential oil mixtures alone without attractant were tested in the same experiment.

[2] = test system: Paper wasps (mainly Polistes dominulus, plus a few of P. aurifer); assay: Field trapping, Rescue W•H•Y traps baited with attractant AA/2MB: captures of paper wasps; format: in vivo; details: for Mean/trap/visit ± SE Paper wasps: attractant AA/2MB alone (row AA/2MB) or plus chemical, N 9; for decrease of trap catches of paper wasps: Experiment 9
Description: as §1, §2

[3] = test system: worker antennae of Vespula pensylvanica, Dolichovespula maculata, Polistes dominulus, and P. aurifer; assay: GC-EAD/MS analysis of SPME headspace samples of essential oils: antennal responses; details: for antennal (EAD) response to component of rosemary oil: V. pensylvanica and D. maculata antennae, FIG. 3; for antennal (EAD) response to component of spearmint oil / antennal (EAD) response to component of pennyroyal oil / antennal (EAD) response to component of geranium oil: V. pensylvanica, D. maculata, P. dominulus, or P. aurifer antennae; for antennal (EAD) response to component of lemongrass oil: antennae of V. pensylvanica, D. maculata, and Polistes dominulus, FIG. 2
Description: Headspace volatiles from greater than 10 types of essential oils (1 ml each in a closed 20 ml glass vial) were sampled via Solid-Phase Micro-Extraction (SPME) (CAR/PDMS, 85 μm, Supelco, Bellefonte, Pa.) for 20-30 sec before GC-EAD and GC-MS analyses.
Paper wasp [European paper wasp (Polistes dominulus) or golden paper wasp (P. aurifer)] and yellowjacket [Western yellowjacket (Vespula pensylvanica) or Bald-faced hornet (Dolichovespula maculata)] workers for electrophysiological study were collected from their nests and kept alive at 4° C. before testing.
SPME samples of the various essential oils were injected splitless into a Varian CP-3800 GC equipped with a polar column (HP-INNOWAX; 30 m×0.53 mm×1.0 μm film thickness; Agilent Technologies, Wilmington, Del., USA) and a 1:1 effluent splitter that allowed simultaneous flame ionization detection (FID) and electroantennographic detection (EAD) of either a yellowjacket or paper wasp worker antenna to the separated volatile compounds. Helium was used as the carrier gas, and the injector and detector temperatures were 250° C. and 300° C., respectively. Column temperature was 50° C. for 1 min, rising to 240° C. at 10° C./min, and then held for 10 min. The outlet for the EAD was held in a humidified air stream flowing at 0.5 m/sec over the antennal preparation. EAD recordings were made using silver wire-glass capillary electrodes filled with Beadle-Ephrussi Ringer on freshly cut antennae. The antennal signals were stored and analyzed on a PC equipped with a serial IDAC interface box and the program EAD ver. 2.5 (Syntech, Hilversum, The Netherlands).
Compounds were identified by comparison of retention times with those of authentic standards and with mass spectra of standards.

[4] = Table 7, Experiment 8, 13 days in September
[5] = V. pensylvanica and P. dominulus worker antennae
[6] = Table 9, Experiment 10, 18 days end of September through mid-October
[7] = Table 8, Experiment 9, 13 days in September

In the case of `CC12CCC(CC1)C(C)(C)O2` [1,8-Cineole, 1,8-cineole], the “repellency at the doses tested” value ([1]; Experiment 8, AA/2 MB) was “not significantly repellent”, the “Mean/trap/visit ± SE Yellowjackets” value [1, 4] was 18.2 ± 4.1 b wasps/trap/visit and the “Mean/trap/visit ± SE Paper wasps” value [2, 4] was 4.6 ± 1.8 a wasps/trap/visit. For the same molecule, the “antennal (EAD) response to component of rosemary oil” value [3] was “significant EAD-responses”, the “antennal (EAD) response to component of lavender oil” value [3, 5] was “strong and repeatable antennal responses” and the “antennal (EAD) response to component of sage oil” value (“antennal … of sage oil” below) [3, 5] was “strong and repeatable antennal responses”. The “antennal (EAD) response to component of spearmint oil” value [3] was “significant and consistent EAD-responses”.
With `CCCCCC(O)CC` (stereo not shown) [3-Octanol, 3-octanol] the “Mean/trap/visit ± SE Yellowjackets” value [1, 6] was 6.9 ± 2.4 ab wasps/trap/visit, the “Mean/trap/visit ± SE Paper wasps” value [2, 6] was 1.1 ± 0.8 a wasps/trap/visit and the “antennal (EAD) response to component of pennyroyal oil” value (from here on “antennal … of pennyroyal oil”) [3] was “significant and consistent EAD-responses”. For the same molecule, the “antennal (EAD) response to component of spearmint oil” value [3] was “significant and consistent EAD-responses”.
For `CCCCCC(=O)CCC` [4-nonanone], the “antennal (EAD) response to component of lemongrass oil” value (“antennal … of lemongrass oil” for short) [3] was “strongly responded”.
`CC(=O)CCC=C(C)C` [6-Methyl-5-hepten-2-one, 6-methyl-5-hepten-2-one] was tested, and the “repellency at the doses tested” value ([1]; Experiment 8, AA/2 MB) was “not significantly repellent”, the “Mean/trap/visit ± SE Yellowjackets” value [1, 4] was 21.9 ± 3.8 b wasps/trap/visit and the “Mean/trap/visit ± SE Paper wasps” value [2, 4] was 4.8 ± 2.3 a wasps/trap/visit. The “antennal … of lemongrass oil” value [3] was “strongly responded”.
For `CC(=O)OCc1ccccc1` [Benzyl acetate, benzyl acetate], the “Mean/trap/visit ± SE Yellowjackets” value [1, 6] was 8.2 ± 3.0 abc wasps/trap/visit, the “Mean/trap/visit ± SE Paper wasps” value [2, 6] was 0.9 ± 0.5 a wasps/trap/visit and the “antennal (EAD) response to component of ylang ylang oil” value (shortened to “antennal … of ylang ylang oil”) [3, 5] was “strong and repeatable antennal responses”.
With `CC(C)=CCCC(C)CC=O` (stereo not shown) [Citronellal, citronellal] the “Mean/trap/visit ± SE Yellowjackets” value [1, 6] was 11.4 ± 5.2 bc wasps/trap/visit, the “Mean/trap/visit ± SE Paper wasps” value [2, 6] was 0.4 ± 0.2 a wasps/trap/visit and the “antennal (EAD) response to component of citronella oil” value [3, 5] was “strong and repeatable antennal responses”.
In the case of `CC(C)=CCC/C(C)=C/C=O` [E-citral], the “antennal … of lemongrass oil” value [3] was “strongly responded”.
For `C=CCc1ccc(O)c(OC)c1` [Eugenol, eugenol], the “reduction of trap catches of yellowjackets” value ([1]; AA/2 MB) was > 95%, the “Mean/trap/visit ± SE Yellowjackets” value [1, 7] was 1.7 ± 0.7 a wasps/trap/visit and the “decrease of trap catches of paper wasps” value ([2]; AA/2 MB) was 58%. For the same molecule, the “Mean/trap/visit ± SE Paper wasps” value [2, 7] was 2.0 ± 0.5 ab wasps/trap/visit and the “antennal (EAD) response to component of clove oil” value [3, 5] was “strong and repeatable antennal responses”.
For `CC(C)=CCC/C(C)=C/COC=O` [Geranyl formate, geranyl formate], the “repellency at the doses tested” value ([1]; Experiment 8, AA/2 MB) was “not significantly repellent”, the “Mean/trap/visit ± SE Yellowjackets” value [1, 4] was 28.2 ± 7.0 b wasps/trap/visit and the “Mean/trap/visit ± SE Paper wasps” value [2, 4] was 5.8 ± 2.7 a wasps/trap/visit. For the same molecule, the “antennal (EAD) response to component of geranium oil” value (shortened to “antennal … of geranium oil”) [3] was “significant and consistent EAD-responses”.
For `C=CC(C)(O)CCC=C(C)C` (stereo not shown) [Linalool, linalool], the “repellency at the doses tested” value ([1]; Experiment 8, AA/2 MB) was “not significantly repellent”, the “Mean/trap/visit ± SE Yellowjackets” value [1, 4] was 23.9 ± 4.0 b wasps/trap/visit and the “Mean/trap/visit ± SE Paper wasps” value [2, 4] was 5.2 ± 3.5 a wasps/trap/visit. The “antennal (EAD) response to component of lavender oil” value [3, 5] was “strong and repeatable antennal responses”, the “antennal … of ylang ylang oil” value [3, 5] was “strong and repeatable antennal responses” and the “antennal … of lemongrass oil” value [3] was “strongly responded”.
With `CC(C)[C@@H]1CC[C@@H](C)CC1=O` [Menthone, menthone] the “yellowjackets caught, attractant plus compound versus attractant alone” value ([1]; Experiment 8, AA/2 MB) was “four times less”, the “Mean/trap/visit ± SE Yellowjackets” value [1, 4] was 7.7 ± 3.4 a wasps/trap/visit and the “trap catch reduction to the paper wasps” value ([2]; Experiment 8, AA/2 MB, not statistically different from the attractant alone) was > 50%. For the same molecule, the “Mean/trap/visit ± SE Paper wasps” value [2, 4] was 2.1 ± 1.3 a wasps/trap/visit, the “antennal … of geranium oil” value [3] was “significant and consistent EAD-responses” and the “antennal … of pennyroyal oil” value [3] was “significant and consistent EAD-responses”.
With `COC(=O)c1ccccc1` [Methyl benzoate, methyl benzoate] the “Mean/trap/visit ± SE Yellowjackets” value [1, 6] was 5.2 ± 2.2 ab wasps/trap/visit, the “Mean/trap/visit ± SE Paper wasps” value [2, 6] was 1.9 ± 0.8 ab wasps/trap/visit and the “antennal … of ylang ylang oil” value [3, 5] was “strong and repeatable antennal responses”.
With `COC(=O)c1ccccc1O` [Methyl salicylate, methyl salicylate] the “Mean/trap/visit ± SE Yellowjackets” value [1, 6] was 4.7 ± 2.0 ab wasps/trap/visit, the “Mean/trap/visit ± SE Paper wasps” value [2, 6] was 0.9 ± 0.5 a wasps/trap/visit and the “antennal (EAD) response to component of wintergreen oil” value ([3]; V. pensylvanica antennae, FIG. 12) was “strong antennal response”.
For `CC(C)=C1CC[C@@H](C)CC1=O` [Pulegone, pulegone], the “Mean/trap/visit ± SE Yellowjackets” value [1, 6] was 6.4 ± 1.8 abc wasps/trap/visit, the “Mean/trap/visit ± SE Paper wasps” value [2, 6] was 0.2 ± 0.1 a wasps/trap/visit and the “antennal … of pennyroyal oil” value [3] was “significant and consistent EAD-responses”.
For `CC(C)=CCC/C(C)=C\C=O` [Z-citral], the “antennal … of lemongrass oil” value [3] was “strongly responded”.
`CC(C)=CCCC(C)CCOC=O` (stereo not shown) [citronyl formate, citronellyl formate] was tested, and the “antennal … of geranium oil” value [3] was “significant and consistent EAD-responses”.
For `Cc1ccc(C(C)C)cc1` [p-cymene], the “antennal … of sage oil” value [3, 5] was “strong and repeatable antennal responses”.
For `CC1=CCC2CC1C2(C)C` (stereo not drawn) [α-pinene], the “antennal (EAD) response to component of rosemary oil” value [3] was “significant EAD-responses” and the “antennal … of sage oil” value [3, 5] was “strong and repeatable antennal responses”.
With `C=C1CC[C@@H]2[C@H]1[C@H]1[C@H](C(C)C)CC[C@]12C` [β-bourberene] the “antennal … of geranium oil” value [3] was “significant and consistent EAD-responses”.
In the case of E/Z-citral, the “reduction of trap catches of yellowjackets” value ([1]; AA/2 MB) was “more than 70%”, the “Mean/trap/visit ± SE Yellowjackets” value [1, 7] was 11.6 ± 5.8 a wasps/trap/visit and the “decrease of trap catches of paper wasps” value ([2]; AA/2 MB) was 88%. The “Mean/trap/visit ± SE Paper wasps” value [2, 7] was 0.6 ± 0.3 a wasps/trap/visit.
For cis/trans-rose oxides, the “antennal … of geranium oil” value [3] was “significant and consistent EAD-responses”.

Source: US20120107428A1, “REPELLENTS FOR PESTIFEROUS SOCIAL WASPS” (Sterling International Inc., priority 2010, published 2012)
